From US8263649B2, “Benzofuran type derivatives, a composition comprising the same for treating or preventing cognitive dysfunction and the use thereof” (Medifron DBT Co., Ltd., priority 2006, dated 2012)

Legend:
[1] = target: T1, aggregated beta amyloid Ab(1-42) (Homo sapiens, UniProt P05067); assay: Inhibition test of beta amyloid aggregation lysis (Thioflavin T fluorescence); assay type: biochemical; conditions: FIG. 1
T1 construct: Synthetic beta amyloid, Ab(1-42) [Bachem Cat. No. H1368; H-Asp-Ala-Glu- Phe-Arg-His-Asp-Ser-Gly-Tyr; purchased Bachem H1368; host or cells: synthetic peptide
Procedure: Synthetic beta amyloid, Ab(1-42) [Bachem Cat. No. H1368; H-Asp-Ala-Glu- Phe-Arg-His-Asp-Ser-Gly-Tyr-Glu-Val-His-His-Gln-Lys-Leu-Val-Phe-Phe-Ala-Glu- Asp-Val-Gly-Ser-Asn-Lys-Gly-Ala-Ile-Ile-Gly-Leu-Met-Val-Gly-Gly-Val-Val-Ile- Ala-OH]) was dissolved in DMSO in order that it induces aggregation at the concentration of 25 microM for 1 week. The test group added with aggregated betaamyloid and test samples inhibiting the inhibition of aggregation and a control group added with only A were reacted together at room temperature for 1 hour on fluorescent black plate. ThT (Thioflavin T) was diluted with 50 mM glycine buffer solution to be […] and the diluted solutions were added to each well by 150 μl/well. The fluorescence intensity of each group was determined by microplate reader (SAFIRE, TECAN) at 450 nm excitation wavelength/480 nm emission wavelength after shaking together for 10 seconds.

[2] = system: HT22 mouse neuronal cell line treated with aggregated beta amyloid 25-35; assay: Inhibition test of beta amyloid toxicity (MTT); assay type: cell-based; conditions: HT22 cells, 25 μm aggregated beta amyloid 25-35, 18 hours
Procedure: To determine the inhibitory activity of the compounds prepared in Examples on beta-amyloid toxicity, following test was performed according to the procedure disclosed in the literature (Gillardon, F. et al., Brain Research, 706(1), pp. 169-172, 1996).
HT22 mouse neuronal cell line was incubated in DMEM (Dulbecco's Modified Eagle's Medium, Gibco-BRL) medium supplemented with 10% FBS (Fetal Bovine Serum, Hyclone) and 1% penicillin/streptomycin (Sigma Co.). Prior to test, HT22 cell was incubated on 96 well plates with a density of 5×10^3 cell/well and further incubated in serum free DMEM medium for 1 hour before the treatment of test sample. Various concentration of compounds prepared in Examples used as a test sample was added thereto and incubated for 1 hour. Aggregated beta amyloid 25-35 (US peptide) was treated thereto to the concentration of 25 μm and incubated for 18 hours to induce cell necrosis. 5 mg/ml of MTT (3-(4,5-dimethyl-2-thiazolyl)-2,5-diphenyl-2H-tetrazolium bromide) solution was added each well with 15 μl/well and the well was incubated for 4 hours. Dissolving buffer solution (10% SDS, 50% dimethyl formamide, pH 4.7) was added to each well with 100 μl/well and reacted for overnight. 18 hours after the reaction, the absorbance of solution was determined by microplate reader (SAFIRE, TECAN) at 570 nm/630 nm wavelength (Gillardon, F. et al., Brain Research, 706(1) pp 169-172, 1996).

[3] = system: A 42; assay: ELISA of beta-amyloid in brain of transgenic mice (A 42); assay type: in vivo, mouse; conditions: APPswe mice treated for 4 months
Procedure: (§1) 13 months old dementia model male mice expressing APPswe was used in the experiment and the mice was divided into two groups, i.e., control group consisting of 2 mice and test groups consisting of 4 mice. Each mouse had been fed with the feed mixed with 3 mg of compound IIb everyday for 4 months.
At the end of behavior test, the brain of mouse was delivered and the left hemisphere was frozen to be used as a cryo-section material. The remaining right hemisphere was used to measure the formation of beta-amyloid according to the procedure disclosed in the literature (J. Neurosci, 21(12), pp 4183-4187, 2001). […]
The amount of beta-amyloid in the brains of mice was determined by […] ELISA method according to the manual provided from Biosource Co and ELISA kit (KHB 3482, Biosource Co.) was used in the experiment. […] The level of color reaction was determined at 450 nm using by spectrophotometer and the absolute amount of beta-amyloid in the samples was transformed by comparing with standard value. The brain of the mice treated with the compound 18b for 4 months was delivered and the amount of beta-amyloid in supernatant obtained from the dissolved brain tissue was determined according to ELISA method.

[4] = system: beta amyloid plaque; assay: Congo Red staining of beta amyloid plaque in brain sections of transgenic mice; assay type: in vivo, mouse; conditions: FIG. 14
[5] = system: ChAT positive neuron; assay: ChAT antibody staining of brain sections of transgenic mice; assay type: in vivo, mouse; conditions: FIG. 15
Procedure: as §1
Four tissue sections per mouse were added to PBST to flocculate and then anti-ChAT was added thereto with a ratio of 1:100. The solution was reacted together for overnight at 4° C. and the tissues were washed with PBST. Secondary antibody (HRP conjugated […] IgG antibody) was added thereto and mixed together with the mixed ratio of 1:1000 at room temperature one hour before the reaction.
After washing again with PBST, the tissues were stained to brown color with DAB kit as a staining agent. The stained tissues were photographed using by optical microscope connecting with […] camera and then the number of the ChAT positive neuron in the tissues was determined.

T1 sequence (P05067 672-713): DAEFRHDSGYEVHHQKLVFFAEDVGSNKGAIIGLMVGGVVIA

## COCCCc1ccc2oc(-c3ccc(OC)c(OC)c3)cc2c1 [Compound 18b, 2-(3,4-dimethoxy-phenyl)-5-(3-methoxy-propyl)-benzofuran]
[1]
  solubilizing activity of beta-amyloid: potent solubilizing activity
[2]
  inhibition effect on beta-amyloid toxicity: potent inhibition effect
[3]
  change of the amount of A 42 in brain (ELISA): no difference
[4]
  numbers, size, and area of plaque in brain: significantly reduced
[5]
  number of neuron (ChAT positive) in brain: slightly increased
